Read-outs that look alike come from different tables or passages of the source. Residues, ends and D or L forms follow the SMILES beside them. No end group written: not given here.
Key:
[1] = test system: RERF-LCAI, LC1sq, 11-18 and LK87 lung cancer cells; assay: 51Cr release cytotoxicity assay on lung cancer cell lines; type: cell-based; conditions: FIG. 4; E:T 20:1, 4 hours
Method: The cytotoxic activity of effector cells stimulated with WT1 wild peptide or WT1 modified peptide was tested on a cancer cell line associated with lung cancer that endogenously expresses WT1 antigen (target cells) using the ^51Cr release method.

[2] = test system: leukemia cells from AML patients (WT1+/A*2402+); assay: 51Cr release cell killing assay on leukemia cells endogenously expressing WT1 antigen; type: cell-based, human; conditions: FIG. 2, E:T 20:1, 4 hours, AML patient cells WT1+/-
Method: The cell killing activity of effector cells stimulated with WT1 wild peptide or WT1 modified peptide on leukemia cells that endogenously express WT1 antigen was tested according to the ^51Cr release method.

[3] = test system: C1R2402 cells pulsed with WT1 wild peptide; assay: Blocking assay using antibody (51Cr release); type: cell-based; conditions: FIG. 5; E:T 20:1, 4 hours; anti-HLA class I, anti-HLA class II, anti-CD8 antibody
From the text: The antibodies used consisted of anti-HLA class I antibody, anti-HLA class II antibody and anti-CD8 antibody.

[4] = test system: peripheral blood mononuclear cells from HLA-A*2402-positive donors; assay: Stimulation of peripheral blood mononuclear cells with peptide; status of the resulting cells; type: cell-based, human
Method: Peripheral blood mononuclear cells were isolated from HLA-A*2402-positive donors and distributed among the wells of a 24-well plate at 2×10^6 cells/well followed by the addition of WT1 wild peptide or WT1 modified peptide to a concentration of 20 μM and culturing for 1 week. The medium used at this time consisted of 45% RPMI, 45% AIV, 10% FCS 1× non-essential amino acids and SM/PCG. Following the aforementioned culturing, the cells were adjusted to 2×10^6 cells/well and used as responder cells.
On the other hand, other peripheral blood mononuclear cells were similarly isolated from the same HLA-A*2402-positive donors and then peptide-pulsed by culturing for 4 days with one of the aforementioned peptides at 20 μM. After then irradiating at 30 Gy, the cells were adjusted to 4×10^6 cells/well and used as stimulator cells.
The responder cells and stimulator cells prepared in the manner described above were then mixed and then cultured for 1 week following the addition of IL-2 at 50 U/ml.

C1R2402 cells = assay: Killing assay (51Cr release) by peptide-stimulated effector cells on peptide-pulsed C1R2402 target cells; type: cell-based
From the text: FIG. 1 is a graph showing the cell killing effects (specific cytolytic activity) on C1R2402 target cells (T), either pulsed or not pulsed with peptide, by effecter cells (E) stimulated with WT1 wild peptide (Sequence ID No. 2) or the WT1 modified peptide of the present invention (Sequence ID No. 3). In the graph, the black circles indicate the cytolytic effect on C1R2402 target cells pulsed with wild peptide by effecter cells stimulated with WT1 modified peptide, the black squares indicate the cytolytic effect on […] target cells pulsed with wild peptide by effecter cells stimulated with WT1 wild peptide, the white circles indicate the cytolytic effect on C1R2402 target cells not pulsed with wild peptide by effecter cells stimulated with WT1 modified peptide, and the white squares indicate the cytolytic effect on C1R2402 target cells not pulsed with wild peptide by effecter cells stimulated with WT1 wild peptide.
FIG. 3 is a graph showing the cell killing effects (specific cytolytic activity) on C1R2402 target cells, either pulsed or not pulsed with peptide, by effecter cells stimulated with WT1 wild peptide or the WT1 modified peptide of the present invention. […]

HLA-A*2402 [5] = target: T1, HLA-A*2402 (Homo sapiens, UniProt P04439, D101N/D140Y/D185E/E176V/E190D/F33S/G103R/G107R/I119L/I121M/I306V/K335N/L105A/L180Q/L300P/N151K/N90K/Q86E/Q94H/R106L/R138H/R89G/T104I/T345S/V100E/W191G/Y123F); assay: Binding affinity to HLA-A*2402 on acid-treated C1RA2402 cells (flow cytometry)
Method: After washing the cells with the medium, they were suspended at a concentration of 2×10^6 cells/ml in DMEM medium containing 200 nM β2-microglobulin (Sigma) and 0.5% bovine serum albumin. 15 μl of the cell suspension were mixed with 50 μl of the medium comprising various concentrations of WT1 peptide followed by incubating for 4 hours at room temperature. After washing the cells, they were stained with monoclonal antibody to HLA-A24 labeled with FITC (clone name: 7A12), and the amount of HLA-A24 expressed was analyzed with a flow cytometer FACS system.

HLA-A*2402 [6] = target: T1, HLA-A*2402; conditions: reported in J. Immunol., 154, 5994, 1995; cited from earlier work
[7] = resulting cells after stimulation with 20 μM peptide and IL-2 50 U/ml

Compound: CSCC[C@H](NC(=O)[C@H](CCC(N)=O)NC(=O)[C@H](CC(N)=O)NC(=O)[C@H](Cc1c[nH]c2ccccc12)NC(=O)[C@@H](NC(=O)[C@H](Cc1ccc(O)cc1)NC(=O)[C@@H](N)CS)[C@@H](C)O)C(=O)N[C@@H](CC(N)=O)C(=O)N[C@@H](CC(C)C)C(=O)O [WT1 modified peptide, Cys Tyr Thr Trp Asn Gln Met Asn Leu] (H-CYTWNQMNL-OH; N-terminus and C-terminus assumed)
- cytotoxic activity of peptide-stimulated effector cells on lung cancer cell lines [1]: the level of that activity was higher
- cytotoxic activity of peptide-stimulated effector cells on leukemia cells [2]: the level of that activity was higher
- blocking of cytotoxic activity of peptide-stimulated effector cells by antibodies [3]: blocked by anti-HLA class I antibody and anti-CD8 antibody
- No. of cells ([4]; PBMC stimulated with 20 μM peptide, responder plus stimulator cells cultured 1 week with IL-2 50 U/ml): 3.0 × 10^6/well
- CD4 [4, 7]: 18%
- CD8 [4, 7]: 38%
- cell killing activity (cell lysis) of peptide-stimulated effector cells (C1R2402 cells; Example 1, FIG. 1, E:T ratio 1, 5, 20, C1R2402 target cells pulsed or not pulsed with peptide): more potent cell killing activity than cells stimulated with WT1 wild peptide
- cytotoxic activity of peptide-stimulated effector cells (C1R2402 cells; Example 3, FIG. 3, effector cells from different healthy HLA-A*2402-positive donors): more potent cytotoxic activity than cells stimulated with WT1 wild peptide
- binding affinity for HLA-A*2402 (comparison) (HLA-A*2402 [5]): stronger binding affinity for HLA-A*2402 than the WT1 wild peptide
- Kd (HLA-A*2402 [5]; calculated using pmel 15 antigen peptide as standard, 4 hours at room temperature, read-out: Dissociation constant Kd): 0.64 µM

Compound: CSCC[C@H](NC(=O)[C@H](CCC(N)=O)NC(=O)[C@H](CC(N)=O)NC(=O)[C@H](Cc1c[nH]c2ccccc12)NC(=O)[C@@H](NC(=O)[C@H](CCSC)NC(=O)[C@@H](N)CS)[C@@H](C)O)C(=O)N[C@@H](CC(N)=O)C(=O)N[C@@H](CC(C)C)C(=O)O [WT1 wild peptide, Cys Met Thr Trp Asn Gln Met Asn Leu, reference compound] (H-CMTWNQMNL-OH)
- cytotoxic activity of peptide-stimulated effector cells on lung cancer cell lines [1]: demonstrated cytotoxic activity only on the WT1+/A*2402+ cells
- cytotoxic activity of peptide-stimulated effector cells on leukemia cells [2]: demonstrated cytotoxic activity on the WT1+/A*2402 cells
- blocking of cytotoxic activity of peptide-stimulated effector cells by antibodies [3]: blocked by anti-HLA class I antibody and anti-CD8 antibody
- Kd (HLA-A*2402 [5]): 18.2 µM

Compound: AYGLDFYIL [melanoma antigen peptide used as standard for the Kd calculation]
- binding to HLA-A*2402 (HLA-A*2402 [6]): reported to bind to HLA-A*2402

Source: US8105604B2, “WT1 modified peptide” (International Institute of Cancer Immunology, Inc., priority 2001, dated 2012)
